According to ChEMBL document CHEMBL1201862, “PubChem BioAssay data set” (2004):
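96-well plates; 48 h exposure; 5 concentrations. Endpoints by linear interpolation between flanking doses. Not reached: highest tested concentration assigned. At the GI50, growth is halved.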 Activity calls are given as the source filed them. Rule as the data show it: active = GI50 up to about 1.1 µM and inactive = higher.

Assays:
Assay in all cases: NCI-60 cell line screen, 48 h
[1] = test system: OVCAR-8
[2] = test system: RXF 393
[3] = test system: NCI-H522
[4] = test system: OVCAR-4
[5] = test system: A549
[6] = test system: MOLT-4
[7] = test system: U-251
[8] = test system: NCI-H460
[9] = test system: SK-OV-3
[10] = test system: CCRF-CEM
[11] = test system: HT-29
[12] = test system: UO-31
[13] = test system: 786-0
[14] = test system: OVCAR-3
[15] = test system: CAKI-1
[16] = test system: A498
[17] = test system: RPMI-8226
[18] = test system: OVCAR-5

Measured: GI50

O=C(NN1C(=O)C(Cl)C1c1ccccc1Cl)c1ccccc1O (stereo not given)
inactive: [1] > 100 µM | [2] 15.9 µM | [3] > 100 µM | [4] > 100 µM | [5] > 100 µM | [6] > 100 µM | [7] > 100 µM | [8] > 100 µM | [9] > 100 µM | [10] > 100 µM | [11] > 100 µM | [12] > 100 µM | [13] > 100 µM | [14] > 100 µM

CCOP(=O)(OCC)C1CCCOC1=O (stereo not given)
inactive: [1] > 100 µM | [2] > 100 µM | [15] > 100 µM | [4] > 100 µM | [5] > 100 µM | [16] > 100 µM | [6] > 100 µM | [7] > 100 µM | [17] > 100 µM | [8] > 100 µM | [9] > 100 µM | [18] > 100 µM | [10] > 100 µM | [11] > 100 µM | [12] > 100 µM | [13] > 100 µM | [14] > 100 µM

c1cncc(CSc2nc3ccccc3nc2-c2cccs2)c1
inactive: [1] 83.9 µM | [15] > 10 µM | [3] 33.4 µM | [4] 53.6 µM | [5] 53.6 µM | [6] 24.8 µM | [17] 32.8 µM | [8] 56 µM | [18] > 100 µM | [10] 30.6 µM | [11] 57.1 µM | [12] 36.4 µM | [13] 58.2 µM | [14] 20.9 µM

N#CC(C(=O)C(=O)Nc1ccccc1)c1ccccc1 (stereo not given)
inactive: [15] > 100 µM | [3] > 100 µM | [5] > 100 µM | [6] > 100 µM | [7] > 100 µM | [17] > 100 µM | [9] > 100 µM | [10] > 100 µM | [11] > 100 µM | [12] > 100 µM | [13] > 100 µM | [14] > 100 µM

CO/N=C(/C(=O)Nc1c[n+](CC(=O)[O-])cs1)c1csc(N)n1
inactive: [1] > 100 µM | [15] > 100 µM | [3] > 100 µM | [5] > 100 µM | [16] > 100 µM | [6] > 100 µM | [7] > 100 µM | [17] > 100 µM | [8] > 100 µM | [9] > 100 µM | [18] > 100 µM | [10] > 100 µM | [11] > 100 µM | [12] > 100 µM | [13] > 100 µM | [14] > 100 µM

CC1OC(OCC2COC(O)(Oc3c(-c4ccc(O)c(O)c4)oc4cc(O)cc(O)c4c3=O)C(O)C2O)C(O)C(O)C1O (stereo not given)
inactive: [1] > 100 µM | [2] > 100 µM | [15] > 100 µM | [4] > 100 µM | [5] > 100 µM | [16] > 100 µM | [6] > 100 µM | [7] > 100 µM | [17] > 100 µM | [8] > 100 µM | [9] > 100 µM | [18] > 100 µM | [10] > 100 µM | [11] > 100 µM | [12] > 100 µM | [13] > 100 µM | [14] > 100 µM

COc1ccc(NC(=O)CCc2cc(-c3ccc(O)c(OC)c3)nc(NC#N)n2)cc1
inactive: [1] > 100 µM | [2] > 100 µM | [15] > 100 µM | [4] > 100 µM | [5] > 100 µM | [6] > 100 µM | [7] > 100 µM | [8] > 100 µM | [9] > 100 µM | [18] > 100 µM | [10] > 100 µM | [11] > 100 µM | [12] > 100 µM | [13] > 100 µM | [14] > 100 µM

Clc1ccc(-c2nnc(-c3nn(-c4ccccc4)c4nc5ccccc5nc34)o2)cc1
inactive: [1] 82.8 µM | [2] 93.3 µM | [15] > 100 µM | [3] > 100 µM | [4] 28 µM | [5] > 100 µM | [6] 26.9 µM | [7] 84.7 µM | [17] 24.7 µM | [8] > 100 µM | [9] > 100 µM | [18] > 100 µM | [10] 28.2 µM | [11] > 100 µM | [12] > 100 µM | [13] > 100 µM | [14] 34.1 µM

CCOC(=O)C1=C(C)NC2=C(C(=O)N(c3ccccc3)C2c2ccccc2)C1c1ccccc1 (stereo not given)
inactive: [1] 20.1 µM | [15] 16 µM | [3] 12.6 µM | [5] 17.8 µM | [6] 19.8 µM | [7] 15.1 µM | [17] 17.1 µM | [9] 17.1 µM | [18] 16.3 µM | [10] 21.2 µM | [11] 19.9 µM | [12] 19.8 µM | [13] 18.9 µM | [14] 12.3 µM

COc1ccc(-c2oc(/C=N/c3ccccc3)c([N+](=O)[O-])c2-c2ccc(OC)c(OC)c2)cc1OC
inactive: [1] > 100 µM | [2] > 100 µM | [15] > 100 µM | [3] > 100 µM | [4] > 100 µM | [5] > 100 µM | [6] > 100 µM | [7] > 100 µM | [17] > 100 µM | [8] > 100 µM | [9] > 100 µM | [18] > 100 µM | [11] > 100 µM | [12] > 100 µM | [13] > 100 µM | [14] > 100 µM

Cc1nn(-c2ccccc2)c(-c2ccccc2[N+](=O)[O-])c1CC#N
inactive: [1] > 100 µM | [2] 45 µM | [15] > 100 µM | [3] 22.2 µM | [4] > 100 µM | [5] > 100 µM | [6] 67.3 µM | [17] 63.2 µM | [8] > 100 µM | [9] > 100 µM | [18] > 100 µM | [10] > 100 µM | [12] 82.2 µM | [13] > 100 µM | [14] 62.1 µM

C(=C\C(Sc1ccccc1)c1ccccc1)/NNC1=NN=C(c2ccccc2)C(c2ccccc2)N1 (stereo not given)
inactive: [1] 34.6 µM | [15] 24.8 µM | [3] 33.7 µM | [4] 83 µM | [5] 58.7 µM | [6] 8.2 µM | [7] 30 µM | [17] 16.4 µM | [8] 30.3 µM | [9] > 100 µM | [18] 35.5 µM | [10] 10.2 µM | [11] 12 µM | [12] 18.8 µM | [13] 65.2 µM | [14] 33.4 µM

CC1CCC2(NC1)OC1CC3[C@@H]4CC=C5C=CCC[C@]5(C)C4CC[C@]3(C)C1C2C (stereo not given in full)
inactive: [1] 17.9 µM | [2] 18.8 µM | [15] 26.3 µM | [4] 18.2 µM | [5] 24 µM | [16] 69.7 µM | [6] 21.7 µM | [7] 28.3 µM | [17] 20 µM | [8] 19 µM | [9] 25.8 µM | [18] 23.6 µM | [10] 21 µM | [11] 15.1 µM | [12] 21.8 µM | [13] 16.6 µM | [14] 24.9 µM
